Measured values taken from patent publication US8829014B2, “Thiazole and thiophene analogues, and their use in treating autoimmune diseases and cancers” (Board of Supervisors of Louisiana State University and …, priority 2006, dated 2014).

These molecules were tested on carageenan-induced edema (assay: Carrageenan-induced rat paw edema test (anti-inflammatory activity)). Conditions: Rattus norvegicus, po, 3 h, carrageenan-induced rat paw edema; defined in Example 397; read-out: % Protection.
Type: in vivo, Sprague-Dawley rats
Procedure, shortened: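 Edema was raised by sub-plantar injection of 1% carrageenan into the right hind paw, 1 h after dosing 18 h-fasted male/female Sprague-Dawley rats (150-250 g) with 50 mg/kg p.o. in 0.1% CMC. Swelling was measured by displacement 3 h later and expressed as % protection against saline control.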

In order of rising inhibition in vivo at 50 mg/kg:
1. COc1ccccc1-n1c(-c2sc(Nc3ccc(Cl)cc3)nc2C)nc2ccccc2c1=O [Example 203, 2-[2-(4-Chlorophenylamino)-4-methyl-thiazol-5-yl]-3-(2-methoxyphenyl)-3H-quinazoline-4-one]  27%
2. COc1ccccc1-n1c(-c2sc(Nc3ccc(Cl)cc3)nc2-c2ccccc2)nc2ccccc2c1=O [Example 208, 2-[2-(4-Chloro-phenylamino)-4-phenyl-thiazol-5-yl]-3-(2-methoxyphenyl)-3H-quinazolin-4-one]  31%

Same assay, conditions: Rattus norvegicus, po, 3 h, rat paw edema, 50 mg/kg, reading 3 hours after carrageenan; [(Control−Test)/Control]×100%; read-out: % Protection P

In order of falling inhibition in vivo at 50 mg/kg:
1. O=C(Nc1ccc(F)cc1)Nc1nc(Nc2ccc(Cl)cc2)sc1C(=O)c1ccncc1 [Example 360, 1-[2-(4-Chloro-phenylamino)-5-(pyridine-4-carbonyl)-thiazol-4-yl]-3-(4-fluoro-phenyl)-urea]  69.8%
2. COc1ccc(C(=O)c2sc(Nc3ccc(Cl)cc3)nc2NC(=O)Nc2ccc(F)cc2)cc1 [Example 355, 1-[2-(4-Chloro-phenylamino)-5-(4-methoxy-benzoyl)-thiazol-4-yl]-3-(4-fluoro-phenyl)-urea]  62.6%
3. CS(=O)(=O)c1ccc(C(=O)c2cc(-c3ccc(S(C)(=O)=O)cc3)c(N3CCOCC3)s2)cc1 [Example 60, (4-Methanesulfonyl-phenyl)-[4-(4-methansulfonyl-phenyl)5-morpholin-4-yl-thiophene-2-yl]-methanone]  59.9%
4. O=C(c1ccncc1)c1cc(-c2ccncc2)c(N2CCOCC2)s1 [Example 111, (5-Morpholin-4-yl-4-pyridin-4-yl-thiophen-2-yl)-pyridin-4-yl-methanone]  59.1%
5. CS(=O)(=O)c1ccc(-c2cc(C(=O)c3cc(-c4ccc(S(C)(=O)=O)cc4)c(N4CCOCC4)s3)sc2N2CCOCC2)cc1 [Example 112, Bis-[4-(4-methansulfonyl-phenyl)-5-morpholin-4-yl-thiophen-2-yl]-methanone]  55.6%
6. O=C(c1ccccc1)c1cc(-c2ccccc2)c(N2CCOCC2)s1 [Example 42, (5-Morpholin-4-yl-4-phenyl-thiophen-2-yl)-phenyl-methanone]  53.5%
7. Cc1ccc(-n2c(-c3cc(-c4ccc(Cl)cc4)c(N4CCOCC4)s3)nc3ccccc3c2=O)cc1 [Example 291, 2-[4-(4-Chlorophenyl)-5-morpholin-4-yl-thiophen-2-yl]-3-p-tolyl-3H-quinazolin-4-one]  53%
8. O=C(c1ccccc1)c1cc(-c2ccncc2)c(N2CCOCC2)s1 [Example 102, (5-Morpholin-4-yl-4-pyridin-4-yl-thiophene-2-yl)-phenyl-methanone]  52%
9. Cc1cccc(-n2c(-c3cc(-c4ccc(S(C)(=O)=O)cc4)c(N4CCOCC4)s3)nc3ccccc3c2=O)c1 [Example 287, 2-[4-(4-Methanesulfonyl-phenyl)-5-morpholin-4-yl-thiophen-2-yl]-3-m-tolyl-3H-quinazolin-4-one]  51%
10. CS(=O)(=O)c1ccc(-c2cc(C(=O)c3ccc(Cl)cc3Cl)sc2N2CCOCC2)cc1 [Example 58, (2,4-Dichloro-phenyl)-[4-(4-methanesulfonyl-phenyl)-5-morpholin-4-yl-thiophen-2-yl]-methanone]  50%
11. Cc1ccc(-n2c(-c3cc(-c4ccccc4)c(N4CCOCC4)s3)nc3ccccc3c2=O)cc1 [Example 290, 2-(5-Morpholin-4-yl-4-phenyl-thiophene-2-yl)-3-p-tolyl-3H-quinazolin-4-one]  48%
12. CC(=O)Nc1ccc(C(=O)c2cc(-c3cccnc3)c(N3CCOCC3)s2)cc1 [Example 97, N-[4-(5-Morpholin-4-yl-4-pyridin-3-yl-thiophen-2-carbonyl)-phenyl]-acetamide]  46.8%
13. Nc1nc(Nc2ccccc2)sc1C(=O)c1ccc(Cl)cc1 [Example 323, (4-Amino-2-phenylamino-thiazol-5-yl)-(4-chloro-phenyl)-methanone]  43%
14. O=C(c1cccnc1)c1cc(-c2cccnc2)c(N2CCOCC2)s1 [Example 98, (5-Morpholin-4-yl-4-pyridin-3-yl-thiophen-2-yl)-pyridin-3-yl-methanone]  42%
15. COc1ccc(Nc2nc(N)c(C(=O)c3ccc(Cl)cc3)s2)cc1 [Example 345, ([4-Amino-2-(4-methoxy-phenylamino)-thiazol-5-yl]-(4-chloro-phenyl)-methanone)]  34.6%
16. COc1ccccc1-n1c(-c2cc(-c3ccccc3)c(N3CCOCC3)s2)nc2ccccc2c1=O [Example 294, 3-(2-Methoxy-phenyl)-2-(5-morpholin-4-yl-4-phenyl-thiophen-2-yl)-3H-quinazolin-4-one]  34%
17. CC(=O)Nc1ccc(-c2cc(C(=O)c3cccnc3)sc2N2CCOCC2)cc1 [Example 74, N-{4-[2-Morpholin-4-yl-5-(pyridine-3-carbonyl)-thiophene-3-yl]-phenyl}-acetamide]  34%
18. O=C(c1ccncc1)c1sc(N2CCN(C(=O)c3ccco3)CC2)nc1-c1ccccc1 [Example 387, {2-[4-(Furan-2-carbonyl)-piperazin-1-yl]-4-phenyl-thiazol-5-yl}-pyridin-4-yl-methanone]  32%
19. Nc1nc(Nc2ccccc2)sc1C(=O)c1cccnc1 [Example 327, (4-Amino-2-phenylamino-thiazol-5-yl)-pyridin-3-yl-methanone]  32%
20. COc1ccc(Nc2nc(N)c(C(=O)c3ccc(S(C)(=O)=O)cc3)s2)cc1 [Example 347, ([4-Amino-2-(4-methoxy-phenylamino)-thiazol-5-yl]-(4-methanesulfonyl-phenyl)-methanone)]  30.3%
21. CS(=O)(=O)c1ccc(C(=O)c2cc(-c3ccccc3)c(N3CCOCC3)s2)cc1 [Example 48, (4-Methylsulfonyl-phenyl)-(5-morpholin-4-yl-4-phenyl-thiophene-2-yl)-methanone]  30%
22. CS(=O)(=O)c1ccc(-c2cc(C(=O)c3ccc(Cl)cc3)sc2N2CCOCC2)cc1 [Example 57, (4-Chloro-phenyl)-[4-(4-methanesulfonyl-phenyl)-5-morpholin-4-yl-thiophen-2-yl]-methanone]  26.9%
23. CC(=O)Nc1ccc(C(=O)c2cc(-c3ccc(S(C)(=O)=O)cc3)c(N3CCOCC3)s2)cc1 [Example 61, N-{4-[4-(4-Methansulfonyl-phenyl)-5-morpholin-4-yl-thiophene-2carbonyl]-phenyl}-acetamide]  25%
24. COc1ccc(Nc2nc(NC(=O)Nc3ccc(F)cc3)c(-c3cc(C)c(OC)c(C)n3)s2)cc1 [Example 366, 1-(4-Fluoro-phenyl)-3-[5-(5-methoxy-4,6-dimethyl-pyridin-2-yl)-2-(4-methoxy-phenylamino)-thiazol-4-yl]-urea]  19.1%
25. CC(=O)Nc1ccc(-c2cc(C(=O)c3ccc(C)cc3)sc2N2CCOCC2)cc1 [Example 67, N-{4-[5-(4-Methyl-benzoyl)-2-morpholin-4-yl-thiophene-3-yl]-phenyl}-acetamide]  7.67%
26. O=C(c1ccc(Cl)cc1)c1cc(-c2cccnc2)c(N2CCOCC2)s1 [Example 93, (4-Chloro-phenyl)-(5-morpholin-4-yl-4-pyridin-3-yl-thiophen-2-yl)-methanone]  0%
27. CS(=O)(=O)c1ccc(-c2cc(C(=O)c3cccnc3)sc2N2CCOCC2)cc1 [Example 62, [4-(4-Methanesulfonyl-phenyl)-5-morpholin-4-yl-thiophene-2-yl]-pyridin-3-yl-methanone]  0%
28. O=C(c1cccnc1)c1cc(-c2ccncc2)c(N2CCOCC2)s1 [Example 110, (5-Morpholin-4-yl-4-pyridin-4-yl-thiophen-2-yl)-pyridin-3-yl-methanone]  -6.93%
29. COc1c(C)cc(-c2cc(-c3cccnc3)c(N3CCOCC3)s2)nc1C [Example 88, 4-[5-(5-Methoxy-4,6-dimethyl-pyridin-2-yl)-3-pyridin-3-yl-thiophen-2-yl]-morpholine]  -18.1%
30. Cc1ccc(C(=O)c2cc(-c3ccc(Cl)cc3)c(N3CCOCC3)s2)cc1 [Example 79, [4-(4-Chloro-phenyl)-5-morpholin-4-yl-thiophen-2-yl]-p-tolyl-methanone]  -31%
31. CC(=O)Nc1ccc(C(=O)c2cc(-c3ccncc3)c(N3CCOCC3)s2)cc1 [Example 109, N-[4-(5-Morpholin-4-yl-4-pyridin-4-yl-thiophen-2-carbonyl)-phenyl]-acetamide]  -75.2%

Same assay, conditions: rat paw edema, 50 mg/kg, reading 3 hours after carrageenan; [(Control−Test)/Control]×100%

In order of falling “% Protection P” value:
1. COc1ccc(Nc2nc(NC(=O)Nc3ccc(F)cc3)c(C(=O)c3ccc(S(C)(=O)=O)cc3)s2)cc1 [Example 364, 1-(4-Fluoro-phenyl)-3-[5-(4-methanesulfonyl-benzoyl)-2-(4-methoxy-phenylamino)-thiazol-4-yl]-urea]  66.78%
2. Bis-(2-methylamino-4-benzayl-thiazole-5-yl)-methanone [Example 132]  47%
3. Cc1ccccc1-n1c(-c2cc(-c3ccccc3)c(N3CCOCC3)s2)nc2ccccc2c1=O [Example 278, 2-(5-Morpholin-4-yl-4-phenyl-thiophene-2-yl)-3-0-tolyl-3H-quinazolin-4-one]  37%
4. 4-{3-(4-Chloro-phenyl)-5-[5-methyl-4-(2,2,2-trifluoro-ethoxy)-pyridin-2-yl]-thiophen-2-yl}-morpholine [Example 77]  23%
5. [4-(4-Chloro-phenyl)-5-morpholin-4-yl-thiophen-2-yl]-(5-methoxy-4,6-dimethyl-pyridin-2-yl)-methanone [Example 76]  17%
